What was measured:
Format in all cases: physicochemical
[1] = Preparation of paramagnetic oil with paraffin (mineral) oil; details: typically 10-30 wt%, as co-component
Description: The complex 3 (molecules of structure (I)) is dissolved in the minimum amount of dichloromethane, so to have a homogeneous solution, after that a fatty alcohol (e.g. isofol® 12) is added (typically 10-40 wt%), and the resultant mixture rotary evaporated under high vacuum to completely eliminate the volatile dichloromethane, resulting in the target homogeneous transparent paramagnetic oil.
The composition is prepared according to example 5.1 but using paraffin (mineral) oil (typically 10-30 wt%) as co-component instead of the fatty alcohol.
This method is particularly suitable when using complexes with long chains (preferably more than 8 carbon atoms).

[2] = Magnetic susceptibility by the Evans method (1H NMR shift of residual CDCl3 proton); details: solution in CDCl3; for χmass: mass susceptibility; for χmol: molar susceptibility, χmol = MW*χmass
From the text: For the prepared molecules of structure (I) in table 2 below, the paramagnetic properties have been evaluated by the Evans method [D.F. Evans, J. Chem. Soc. 2003 (1959)]. This is based on nuclear magnetic measurements (NMR), and relies on the fact that the chemical shift (position) of the ^1H NMR signals of a molecule depend on the bulk susceptibility of the medium. In particular, the resonance line of the residual proton of CDCl3 (i.e. the NMR solvent) was used as a reference, by comparing its chemical shift for the pure CDCl3 and for a solution containing the molecules of structure (I).
As expected the mass susceptibility of the different complexes (molecules of structure (I)) vary depending on mass ratio between the paramagnetic ion (e.g. Ho^3+) and the organic DTPA-ligand (thus, it is smaller for the bigger ligands). […] Magnetism and magnetic materials. Cambridge University Press, 2010]

[3] = Verdet coefficient measurement (magneto-optic, Faraday effect); details: 1 M aqueous solution (control)
Description: The composition is prepared according to example 5.1 but using isofol 12 to obtain a weight fraction of 23 % w/w of isofol 12, where Tb^3+ is used as the paramagnetic ion in structure (I). The Verdet coefficient was determined to be 17.1 rad T^-1 m^-1 at 410 nm wavelength, and 8.0 rad T^-1 m^-1 at 600 nm. As a control a 1 M TbCl3 aqueous solution was measured using the same method resulting in a Verdet coefficient of 14.1 rad T^-1 m^-1 at 410 nm wavelength, and 4.9 rad T^-1 m^-1 at 600 nm in agreement with literature.

Compound	appearance of composition with mineral oil [1]	χmass [2]	χmol [2] [cm^3 mol^-1]	Verdet coefficient ([3]; 410 nm wavelength) [rad T^-1 m^-1]	Verdet coefficient ([3]; 600 nm) [rad T^-1 m^-1]
Ho-DTPA-(1-octadecanol)2	homogeneous transparent fluid reacting to magnetic fields	–	–	–	–
Ho-DTPA-(hexanol)2	–	6.04 (cm^3 g^-1) /10-5	0.0437	–	–
Ho-DTPA-(2-octyl-1-dodecanol)2	–	3.72 (cm^3 g^-1) /10-5	0.0415	–	–
CC(=O)[O-].CC(=O)[O-].CC(=O)[O-].O.[Ho+3] [Ho(AcO)3 *nH2O, reference compound]	–	11.0 (cm^3 g^-1) /10-5	0.037	–	–
Ho-DTPA-(3,7-dimethy-1-octanol)2	–	5.05 (cm^3 g^-1) /10-5	0.0422	–	–
Ho-DTPA-(2-butyl-1-octanol)2	–	4.98 (cm^3 g^-1) /10-5	0.0350	–	–
[Cl][Tb]([Cl])[Cl] [TbCl3]	–	–	–	14.1	4.9

— patent publication EP3514141A1, “MAGNETIC MOLECULES” (Centre National de la Recherche Scientifique, priority 2018, dated 2019)
